For series [1], the system named is LPS-stimulated peritoneal macrophages of C57bl/6j mice. Nature of the series: IL-6 secretion by LPS-stimulated peritoneal macrophages (ELISA). In kind it is cell-based. As to conditions: Mus musculus, Peritoneal macrophage, 95% C.I. 1.43-9.87 μM. The protocol: Peritoneal macrophages (PM) were isolated from the peritoneal exudate of 30 male C57bl/6j mice. To accumulate PM, 1 mL of 3% peptone solution was injected intraperitoneally. After 3 days, the mice were euthanized by cervical dislocation. Cells of peritoneal exudate were obtained by aseptic washing of the abdominal cavity with 5 mL of sterile Hanks’s solution (+4–6 °C) without calcium and magnesium ions. The total number and viability of cells were assessed in a Goryaev counting chamber (Russia) with a 0.4% trypan blue staining (Sigma-Aldrich, St. Louis, MO, USA). The cell concentration was adjusted to 1.0 × 10^6 cells/mL in DMEM (Gibco) supplemented with 2 mM L-glutamine (Gibco, Waltham, MA, USA), 10% heat-inactivated fetal bovine serum (BioClot, Bavaria, Germany), 100 U/mL penicillin, and […] streptomycin (Gibco) and plated 200 μL/well in 96-well transparent plates (SPL Life Sciences Co., Ltd., Pocheon-si, Korea). After 2 h at 37 °C in a humidified atmosphere with 5% CO2, the wells were washed to remove non-adherent cells. […]
The cell supernatant was collected and centrifuged at 1000 g for 20 min in a 2–16PK centrifuge (Sigma, Osterode am Harz, Germany). The concentrations of IL-6 and TNF-α were determined by ELISA using commercial kits (Cloud-clone, Houston, TX, USA) with a microplate reader Infinite M200 PRO (Tecan, Grödig, Austria).
(An ELISA detects its analyte on a solid surface through an enzyme-linked reagent.)

Series [2] shares this test system. As to the kind of experiment: Cell viability of LPS-stimulated macrophages, MTT test. It is filed as cell-based. Conditions: male, C57bl/6j, mouse, 24 h, 100 μM. How it is done:
(§1) Peritoneal macrophages (PM) were isolated from the peritoneal exudate of 30 male C57bl/6j mice. To accumulate PM, 1 mL of 3% peptone solution was injected intraperitoneally. After 3 days, the mice were euthanized by cervical dislocation. Cells of peritoneal exudate were obtained by aseptic washing of the abdominal cavity with 5 mL of sterile Hanks’s solution (+4–6 °C) without calcium and magnesium ions. The total number and viability of cells were assessed in a Goryaev counting chamber (Russia) with a 0.4% trypan blue staining (Sigma-Aldrich, St. Louis, MO, USA). The cell concentration was adjusted to 1.0 × 10^6 cells/mL in DMEM (Gibco) supplemented with 2 mM L-glutamine (Gibco, Waltham, MA, USA), 10% heat-inactivated fetal bovine serum (BioClot, Bavaria, Germany), 100 U/mL penicillin, and […] streptomycin (Gibco) and plated 200 μL/well in 96-well transparent plates (SPL Life Sciences Co., Ltd., Pocheon-si, Korea). After 2 h at 37 °C in a humidified atmosphere with 5% CO2, the wells were washed to remove non-adherent cells. After 24 h of incubation, 20 μL of the supernatants were substituted with 20 μL of solutions of test compounds, followed by E. coli O127:B8 LPS (100 ng/mL final concentration) after 30 min. The experiments were run in 3 independent replicates.
(§2) The activity of lactate dehydrogenase (LDH) in a cell culture medium served as a marker of membrane permeability and cell death. Aliquotes of supernatants were taken after 24 h of inoculation with test compounds, mixed with 250 μL of […] NADH solution in 54 mM phosphate-buffered saline (pH 7.5). Then, 25 μL of a 6.48 mM pyruvate solution was added to the mixture. The optical density was followed at a wavelength of 340 nm for 20 min. The MTT-test was performed 24 h after incubations of cells with tested compounds. Briefly, 20 μL of MTT solution was added to each well, incubated at 37 °C in a humidified atmosphere containing 5% CO2 for 4 h. The culture medium was removed, the cells were lysed, and formazan crystals were dissolved in 150 μL DMSO. The plates were shaken at room temperature for 10 min, and the optical density was measured in a microplate reader Infinite M200 PRO (Tecan, Grödig, Austria) at a wavelength of 565 nm.
(In general: Tetrazolium assays rely on reduction of a dye to a coloured formazan, in cell work by metabolically active cells.)

Assay in series [3]: as above
Conditions: male, C57bl/6j, mouse. It is filed as cell-based. The protocol: as §1, §2

Series [4] deals with peritoneal macrophages of C57bl/6j mice. As to the kind of experiment: Yeast phagocytosis assay and macrophage spreading. In kind it is cell-based, mouse. How it is done: Next, we evaluated lead compound 9g for immunodepressant activity in parallel with the reference drug dexamethasone. Yeast phagocytosis was assessed by microscopic examination as the number of phagocytes per 100 macrophages and as the number of phagocytosed yeast cells in each phagocyte. Cell viability was assessed as lactate dehydrogenase activity in cell supernatants, which correlates with increased cell membrane permeability.
Peritoneal macrophages of C57bl/6j mice were cultured in a 24-well plate at a volume of 500 μL/well (1 × 10^5 cells/mL) for 24 h. Test compounds or DMSO were added to wells in triplicate followed by 50 μL of 1% yeast suspension, and the plates were incubated for 40 min. After 24 or 72 h, the medium was removed. The cells were fixed with May–Grunwald methanol dye and stained with Azur-Eosin in Romanovsky’s modification for 45 min at room temperature, washed, air-dried, and analyzed using a microscope Mikmed-6 (Russia), equipped with a digital camera. The study was performed in three technical replicates and two series; 100 macrophages were processed in each sample to count the captured yeast cells. Macrophage spreading was assessed as a number of pseudopodia.

The term IC50 denotes the midpoint of a concentration-inhibition curve. A higher IC50 goes with a need for much substance. The term CC50 denotes the concentration giving 50% cytotoxicity. A low value points to harm at low concentration.

On to `Cc1nc2nnnn2c(NCCc2ccc(O)cc2)c1[N+](=O)[O-]` [Compound 9g, N-[2-(4-Hydroxyphenyl)ethyl]-5-methyl-6-nitrotetrazolo-[1,5-a]pyrimidin-7-amine], for which the IC50 in series [1] worked out at 3.72 µM. The “Cell Viability vs. LPS Control, MTT Test” value in series [2] is listed as 84.65 ± 5.83%. The same compound gave a CC50 at 24 h in series [3] above 100 µM. Also, the Suppression of phagocytosis entry in series [4] (after 24-h of incubation, data not shown) was “not”. Besides, in series [4] (after 72 h of incubation), the “Decrease of the mean number of phagocytosed yeast cells” value is given as 16% and the “Macrophage phagocytic activity (in words)” value is reported as “preserved macrophage phagocytic activity”. For the same compound, in series [4] (yeast-stimulated, visually scored), the Macrophage spreading result is “reduced it to a nearly unstimulated level”.

The values are drawn from paper PMC9146423, “Discovery of Nitro-azolo[1,5-a]pyrimidines with Anti-Inflammatory and Protective Activity against LPS-Induced Acute Lung Injury” (Pharmaceuticals, 2022).
